Results published in US6020480A, “Caged NADP and NAD” (The Regents of the University of California, priority 1997, dated 2000).

Key:
[1] = Rates of photorelease from decay of the aci-nitro anions after photolysis; assay type: physicochemical
Procedure: The decay of aci-nitro intermediates was monitored at 402 nm or 418 nm with an Osram 50-W tungsten halogen lamp following excitation at 355 nm with a 55 mJ 8-ns pulse. Samples were prepared with 50 mM phosphate buffer, pH 7.0 or pH 6.0. […] Kinetic analysis was made by nonlinear, least-squares computer iteration. The averages of three trials are reported.

[2] = target: T1, IDH, isocitrate dehydrogenase (Escherichia coli) (Escherichia coli, UniProt P08200); experiment: Crystallographic analysis of caged compounds soaked into IDH crystals; assay type: binding; conditions: 250 mM soak
T1 construct: made in house
T1 sequence (P08200 whole entry): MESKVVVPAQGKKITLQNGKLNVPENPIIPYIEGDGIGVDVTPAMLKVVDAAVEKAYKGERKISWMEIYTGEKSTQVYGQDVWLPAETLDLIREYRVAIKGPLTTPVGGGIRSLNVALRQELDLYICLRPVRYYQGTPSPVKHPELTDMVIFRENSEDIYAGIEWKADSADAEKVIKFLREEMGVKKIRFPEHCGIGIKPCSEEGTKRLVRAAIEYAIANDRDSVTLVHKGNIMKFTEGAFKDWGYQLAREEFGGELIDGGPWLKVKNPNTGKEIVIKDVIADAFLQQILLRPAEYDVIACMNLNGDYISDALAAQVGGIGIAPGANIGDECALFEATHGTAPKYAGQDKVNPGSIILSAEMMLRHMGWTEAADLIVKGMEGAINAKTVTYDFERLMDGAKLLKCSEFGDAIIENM
Description: IDH was purified and crystallized as described previously by Reeves, H. C., Daumy, G. O., Lin, C. C., and Houston, M. (1972) Biochim. Biophys. Acta 258, 27-39; LaPorte, D. C., Thorsness, P. E., and Koshland, D. E., Jr. (1985) J. Biol. Chem. 260, 10563-10568; Hurley, J. H., Thorsness, P. E., Ramalingam, V., Helmers, N. H., Koshland, D. E., Jr., and Stroud, R. M. (1989) Proc. Natl. Acad. Sci. U.S.A 86, 8635-8639; and Stoddard, B. L., Dean, A., and Koshland, D. E., Jr. (1993) Biochemistry 32, 9310-9316.
The crystals were 0.5 to 1.5 mm along their longest edges, with a shorter third dimension of 0.2 to 0.3 mm; the crystals belong to space group P43 21 2. The unit cell dimensions prior to photolysis and after binding liberated substrate consistently refined to values within 0.5% of the previously published lengths during data processing.
A total of six crystallographic data sets were collected for this study. The structure of the enzyme was determined prior to photolysis after soaking with each compound, both in the presence and absence of bound isocitrate/Mg^+2. The structure of the bound photolysis product was also determined for both caged compounds in the absence of isocitrate/Mg^+2.
For each experiment, a crystal was transferred to 0.5 mL of a stabilization solution (generally 10% higher ammonium sulfate than that used to grow the crystals, buffered at pH 7.0 with HEPES) and soaked overnight in the dark with 250 mM of either 1 or 3. These experiments were performed for each compound in the presence and absence of 50 mM isocitrate and MgSO4. To protect the crystal from oxidative degradation after photolysis by the nitroso photoproducts, β-mercaptoethanol (10 mM) and DTT (10 mM) were also added to the mother liquor. The crystals were mounted under safe-light in quartz capillaries with mother liquor at either end of the capillary. The mount was sealed with mineral oil and paraffin wax. Initial data were collected at room temperature in the dark on an RAXIS imaging plate area detector with a Rigaku RU-200 rotating anode X-ray generator operating at 50 kV, 80 mA. A complete data set was collected from each crystal to 2.5 Å resolution using 20 1.5° rotations at 30 minutes per frame, followed by an additional 10 frames collected with the crystal on a 45° jig (Molecular Structure Corporation) for completeness. The total decay in X-ray intensities during collection of each of these four dark data sets was less than 5% of the initial structure average factor amplitudes.
Crystals that were soaked in caged 1 or 3 in the absence of isocitrate were each irradiated after the dark data collection, using a two minute exposure with a Cole Parmer 9741-50 quartz halogen light source with a 9741-03 high intensity 150 watt bulb and dual fiber optic light pipes and focusing lenses. […]

[3] = target: T1, IDH, isocitrate dehydrogenase (Escherichia coli); experiment: Turnover check by absorbance analysis of dissolved IDH crystals after extensive soaks; assay type: biochemical; conditions: crystals soaked in presence of bound isocitrate/Mg+2
Description: The nicotinamide ring, its ribose sugar, and the first backbone phosphate are all completely disordered. […] The presence of the caging group on the carboxyamide nitrogen sterically prevents hydride transfer. […] After photolysis in the absence of isocitrate, liberated NADP 1002 is still bound to the active site as previously determined for unmodified NADP, as shown in FIG. C. The clear advantage of this compound as a photolytic trigger for time-resolved studies is that it is bound to the enzyme active site prior to photolysis, so that no additional diffusion or binding events are necessary to form the Michaelis complex.

[4] = 10 mM DTT, monitored at 418 nm, double exponential fit
[5] = absence of bound isocitrate/Mg+2, dark
[6] = presence of bound isocitrate/Mg+2, dark

Question: With “P-[1-(4,5-Dimethoxy-2-nitrophenyl)ethyl] nicotinamide adenine dinucleotide [compound 2]” as the molecule, how does the fast decay component ([1]; DTT concentration not stated) read?
Answer: 17000 s⁻¹

Question: For `COc1cc(C(C)OP(=O)(O)O[C@@H]2[C@H](O)[C@@H](COP(=O)(O)OP(=O)([O-])OC[C@H]3O[C@@H]([n+]4cccc(C(N)=O)c4)[C@H](O)[C@@H]3O)O[C@H]2n2cnc3c(N)ncnc32)c([N+](=O)[O-])cc1OC` (stereo partly drawn) [compound 1, P^2' -[1-(4,5-Dimethoxy-2-nitrophenyl)ethyl]nicotinamide adenine dinucleotide phosphate], which “aci-nitro transient decay rate, fast component” value [1, 4] is on record?
Answer: 13000 s⁻¹

Question: What about the “aci-nitro transient decay rate, slow component” value [1, 4] of the same molecule?
Answer: 93 s⁻¹

Question: And the “aci-nitro transient decay rate, fast component” value ([1]; 100 mM DTT, 418 nm)?
Answer: 18000 s⁻¹

Question: And the “aci-nitro transient decay rate, slow component” value ([1]; 100 mM DTT, 418 nm)?
Answer: 480 s⁻¹

Question: And the “binding to IDH active site before photolysis” value (“binding” below) [2, 5]?
Answer: fails to bind

Question: And the “binding” value [2, 6]?
Answer: fails to bind

Question: Which “IDH turnover with caged cofactor before photolysis” value [3] does the source give for `Nc1ncnc2c1ncn2[C@@H]1O[C@H](COP(=O)(O)OP(=O)([O-])OC[C@H]2O[C@@H]([n+]3cccc(C(=O)NC(C(=O)O)c4ccccc4[N+](=O)[O-])c3)[C@H](O)[C@@H]2O)[C@@H](O)[C@H]1OP(=O)(O)O` (stereo partly drawn) [compound 3, N-(α-Carboxy-2-nitrobenzyl)-nicotinamide adenine dinucleotide phosphate] here?
Answer: turnover does not occur

Question: And the “first-order decay rate k of transient (rate of photorelease)” value ([1]; 50 mM phosphate buffer, pH 7.0)?
Answer: 30 s⁻¹

Question: What about the rate of photorelease ([1]; sample pH 6) of the same molecule?
Answer: 42 s⁻¹

Question: And the “binding” value [2, 5]?
Answer: binds to the enzyme

Question: What about the “binding” value [2, 6] of the same molecule?
Answer: both backbone phosphates of the caged cofactor are well ordered
